{"source": "patent US6365628B1", "about": "(Thia Medica AS, priority 1998, dated 2002)", "key": {"[1]": {"tested_on": "dogs", "assay": "28 days toxicity study in dogs (GLP), oral TTA", "type": "in vivo, dog", "text": "A 28 days toxicity study in dogs according to GLP guide-lines has been performed by Corning Hazleton (Europe), England. […] Some lipid related parameters were lowered in the animals given high dosages. This is consistent with the pharmacological activity of TTA."}, "[2]": {"tested_on": "chinese hamster ovary cells", "assay": "Chromosomal aberrations in cultured chinese hamster ovary cells", "type": "cell-based", "settings": "doses tested 12-140 mg/ml"}, "[3]": {"tested_on": "young obese Zucker (fa/fa) rats", "assay": "Body weight gain, liver and adipose tissue weights in young obese Zucker rats (Example 9)", "type": "in vivo, rat", "settings": "5 week-old male obese Zucker (fa/fa) rats, TTA 300/kg/day in 0.5% CMC, 11 days, means ± SD", "method": "The obese Zucker (fa/fa) rats used in this study were bred at the U 465 INSERM animal facility from pairs originally provided by the Harriet G. Bird Laboratory (Stow, Mass., USA). Unless otherwise stated, the animals were maintained under a constant light-dark cycle (light from 7:00 a.m. to 7:00 p.m.) at 21±1° C. and were given free access to food and water. Three rats were housed per cage. Weight gains were recorded daily.\n5 week-old male obese Zucker (fa/fa) rats fed with TTA, 300/kg/day suspended in 0.5% CMC. Control animals received CMC only. Following 11 days of treatment, rats were killed by cervical dislocation, liver and epididymal adipose tissue pads were dissected out and weighed. Data are means±SD of 6 animals in the control- and 6 animals in the experimental group."}, "[4]": {"tested_on": "high fat diet fed Wistar Charles River rats", "assay": "High fat diet with or without TTA for three weeks, adipose tissue weights (Example 5)", "type": "in vivo, rat", "settings": "high fat diet + 0.4% TTA for three weeks, mean ± SEM", "method": "Male Wistar Charles River rats weighing 280-358 grams were purchased from AnLab Ltd. (Prague, Czech Republic) and housed in wire-mesh cages in a temperature (22±1° C.) and light-controlled (light from 7:00 a.m. to 7:00 p.m.) room. They were given free access to chow and water. Three rats were housed per cage. Weight gain and food intake were recorded daily.\nHigh Fat (HF): 1.9% gelatin, 5.7% wheat bran, 7.7% vitamins and minerals, 25.4% corn starch, 25.7% casein, 26.8% beef tallow and 7.1% sunflower oil.\nHF+TTA: Same+0.4% TTA dissolved in the beef tallow.\nMale Wistar Charles River rats (280-360 g) were fed 3 different diets (see methods) for 3 weeks ad libitum. Afterwards, they were killed by decapitation, liver and epididymal adipose tissue pads were dissected out and weighed.\nFeeding the Wistar rats the high fat diet thus increased the epididymal and retroperitoneal fad pad weight."}, "[5]": {"tested_on": "obese Zucker (fa/fa) rats", "assay": "Liver mitochondrial fatty acid oxidation, CPT-I and CPT-II after TTA feeding (Example 16)", "type": "in vivo, rat", "settings": "chow with 0.15% TTA", "method": "Freshly isolated livers from individual old Zucker rats, were homogenised in ice-cold sucrose buffer (0.25 M sucrose, 10 mM HEPES (pH 7.4) and 2 mM EDTA). Post-nuclear and mitochondrial fractions were prepared using preparative differential centrifugation according to DeDuve et al. (De Duve, C., et al., Biochem. J., 60, 604-617 1955.) Modifications, purity and yield were as described earlier (Garras, A., et al., Biochim. Biophys. Acta, 1255, 154-160 1995.). Acid soluble products were measured in post-nuclear and mitochondrial enriched fractions, using [1-^14C]-palmitoyl-CoA and [1-^14C]-palmitoyl-L-carnitine (Radiochemical Centre, Amersham, England) as substrates as described earlier (Willumsen, N., et al., J. Lipid Res., 34, 13-22 1993. Carnitine palmitoyltransferase-I and -II activities were measured in the post-nuclear and mitochondrial fractions essentially as described by Bremer (Bremer, J., Biochim. Biophys. Acta, 665, 628-631 1981.) and 3-hydroxy-3-methylglutharyl-CoA synthase was measured according to Clinkenbeard et al. (Clinkenbeard, K. D., et al., J. Biol. Chem, 250, 3108-3116 1975.) in the mitochondrial fractions.\nRNA extraction (Chomczynski, P., et al., Anal. Biochem., 162, 156-159 1987.), Northern blot analysis and slot blotting of RNA onto nylon filters, and hybridisation to immobilised RNA were performed as earlier described (Vaagenes, H., et al., Biochem. Pharmacol., 56, 1571-1582 1998.). […]\nObese Zucker (fa/fa) rats were given a standard chow either with (n=6) or without (n=5) 0.15% TTA. […] Fatty acid oxidation rates were measured using [1-^14C]-palmitoyl CoA or [1-^14C]-palmitoyl-L-carnitine as substrates (A) CPT-I (B) and CPT-II (C) were measured in the mitochondrial factions. […] The relative mRNA levels were determined by densiometric scanning of the autoradiograms and the different mRNA levels were normalised to the respective 28S rRNA and the means for the controls were set to 1. […] Values are expressed as the mean±S.D."}}, "data": [{"substance": "Tetradecylthioacetic acid [TTA]", "values": [{"measurement": "Effect on body weight", "setting": "[1]; 500 mg/kg/day", "value": "body weight loss"}, {"measurement": "Evidence of toxicity", "setting": "[1]; dose levels of 50 or 500 mg/day/kg", "value": "no evidence of toxicity"}, {"measurement": "Tolerability of oral administration", "setting": "[1]; dose levels up to 500 mg/kg/day", "value": "generally well tolerated"}, {"measurement": "Chromosomal aberrations in cultured chinese hamster ovary cells", "setting": "[2]", "value": "no aberrations were induced"}, {"measurement": "Body weight gain", "setting": "[3]", "value": "6.23 ± 0.28", "unit": "g/day"}, {"measurement": "Epididymal adipose tissue/body weight (%)", "setting": "[3]", "value": "0.78 ± 0.02", "unit": "%"}, {"measurement": "Epididymal adipose tissue", "setting": "[4]", "value": "3.1 ± 0.2", "unit": "g"}, {"measurement": "Epididymal adipose tissue/body weight (%)", "setting": "[4]", "value": "1.0 ± 0.1", "unit": "%"}, {"measurement": "Retroperitoneal adipose tissue", "setting": "[4]", "value": "2.7 ± 0.2", "unit": "g"}, {"measurement": "Retroperitoneal adipose tissue/body weight (%)", "setting": "[4]", "value": "0.8 ± 0.05", "unit": "%"}, {"measurement": "Activity and mRNA levels of CPT-I", "setting": "[5]; 21 days (FIG. 8B)", "value": "increase"}, {"measurement": "Activity and mRNA levels of CPT-II", "setting": "[5]; 21 days (FIG. 8C)", "value": "increase"}, {"measurement": "Increase of liver fatty acid oxidation", "setting": "[5]; 21 days, palmitoyl-CoA and palmitoyl-L-carnitine as substrates (FIG. 8A)", "value": "more than 7 fold"}]}]}
